Structures can show the parent of a compound that is named as a salt.
Tests used:
ISC-enriched organoids [1] = assay: Primary screen, 384-well 2.5-D organoid differentiation (ENR+CD, 6 days, Target Selective Inhibitor Library, vs whole-plate median): ATP (CellTiter-Glo 3D, CTG); conditions: for Dose.FC.CTG (log 2 fold change, ATP): vs plate median; for Z.CTG / SSMD.CTG / Dose.FC.CTG: primary screen; for SSMD.CTG: strictly standardized mean difference; for Dose.FC.CTG: FC vs plate median
ISC-enriched organoids [2] = assay: Primary screen, 384-well 2.5-D organoid differentiation (ENR+CD, 6 days): basal lysozyme secretion (LYZ.NS); format: cell-based, murine; conditions: for Dose.FC.LYZ.NS (log 2 fold change, basal lysozyme secretion): vs plate median; for SSMD.LYZ.NS: strictly standardized mean difference; for SSMD.LYZ.NS / Dose.FC.LYZ.NS / Z.LYZ.NS: primary screen; for Dose.FC.LYZ.NS: FC vs plate median
Source text: (§1) High-throughput screening.

ISC-enriched organoids [3] = assay: Primary screen, 384-well 2.5-D organoid differentiation (ENR+CD, 6 days): carbachol-induced lysozyme secretion (LYZ.S); format: cell-based, murine; conditions: for Dose.FC.LYZ.S (log 2 fold change, carbachol-induced lysozyme secretion): vs plate median; for Z.LYZ.S: standard z score; for Z.LYZ.S / SSMD.LYZ.S / Dose.FC.LYZ.S: primary screen; for SSMD.LYZ.S: strictly standardized mean difference; for Dose.FC.LYZ.S: FC vs plate median
Source text: as §1

[4] = Dose 10.00 uM, standard z score
[5] = 1st of the 4 dose lines of the treatment (dose not given)
[6] = 2nd of the 4 dose lines of the treatment (dose not given)
[7] = 3rd of the 4 dose lines of the treatment (dose not given)
[8] = 4th of the 4 dose lines of the treatment (dose not given)
[9] = dose 0.08 uM, standard z score of FC
[10] = dose 0.40 uM, standard z score of FC
[11] = dose 2.00 uM, standard z score of FC
[12] = dose 10.00 uM, standard z score of FC

CN(C)CCCCC(=O)Nc1ccc(NC(=S)NC(=O)c2ccc(C(C)(C)C)cc2)cc1 [Tenovin-6]
Z.CTG (standard z score) (ISC-enriched organoids [1]; dose 0.08 uM): 0.165
Dose.FC.CTG (log 2 fold change, ATP) (ISC-enriched organoids [1]; dose 0.08 uM): 0.069
Z.CTG (standard z score) (ISC-enriched organoids [1]; dose 0.40 uM): −1.209
Dose.FC.CTG (log 2 fold change, ATP) (ISC-enriched organoids [1]; dose 0.40 uM): −0.506
Z.CTG (standard z score) (ISC-enriched organoids [1]; dose 2.00 uM): −2.654
Dose.FC.CTG (log 2 fold change, ATP) (ISC-enriched organoids [1]; dose 2.00 uM): −1.111
Z.CTG (standard z score) (ISC-enriched organoids [1]; dose 10.00 uM): −3.414
Dose.FC.CTG (log 2 fold change, ATP) (ISC-enriched organoids [1]; dose 10.00 uM): −1.429
Z.LYZ.NS (standard z score) (ISC-enriched organoids [2]; dose 0.08 uM): 1.050
Dose.FC.LYZ.NS (log 2 fold change, basal lysozyme secretion) (ISC-enriched organoids [2]; dose 0.08 uM): 0.121
Z.LYZ.NS (standard z score) (ISC-enriched organoids [2]; dose 0.40 uM): −0.463
Dose.FC.LYZ.NS (log 2 fold change, basal lysozyme secretion) (ISC-enriched organoids [2]; dose 0.40 uM): −0.053
Z.LYZ.NS (standard z score) (ISC-enriched organoids [2]; dose 2.00 uM): −1.686
Dose.FC.LYZ.NS (log 2 fold change, basal lysozyme secretion) (ISC-enriched organoids [2]; dose 2.00 uM): −0.194
Z.LYZ.NS (standard z score) (ISC-enriched organoids [2]; dose 10.00 uM): −1.671
Dose.FC.LYZ.NS (log 2 fold change, basal lysozyme secretion) (ISC-enriched organoids [2]; dose 10.00 uM): −0.192
Dose.FC.LYZ.S (log 2 fold change, carbachol-induced lysozyme secretion) (ISC-enriched organoids [3]; dose 0.08 uM): 0.028
Dose.FC.LYZ.S (log 2 fold change, carbachol-induced lysozyme secretion) (ISC-enriched organoids [3]; dose 0.40 uM): −0.109
Dose.FC.LYZ.S (log 2 fold change, carbachol-induced lysozyme secretion) (ISC-enriched organoids [3]; dose 2.00 uM): −0.328
Dose.FC.LYZ.S (log 2 fold change, carbachol-induced lysozyme secretion) (ISC-enriched organoids [3]; dose 10.00 uM): −0.344

CC12CC3CC(C)(C1)CC(N)(C3)C2 [Memantine HCl]
Z.CTG (ISC-enriched organoids [1]; Dose 0.08 uM, standard z score): 0.199
Z.CTG (ISC-enriched organoids [1]; Dose 0.40 uM, standard z score): 0.173
Z.CTG (ISC-enriched organoids [1]; Dose 2.00 uM, standard z score): −0.018
Z.CTG (ISC-enriched organoids [1]; [4]): 0.184
SSMD.CTG (ISC-enriched organoids [1]; [5]): 0.214
SSMD.CTG (ISC-enriched organoids [1]; [6]): 0.219
SSMD.CTG (ISC-enriched organoids [1]; [7]): −0.016
SSMD.CTG (ISC-enriched organoids [1]; [8]): 0.145
SSMD.LYZ.NS (ISC-enriched organoids [2]; [5]): 0.489
SSMD.LYZ.NS (ISC-enriched organoids [2]; [6]): 0.038
SSMD.LYZ.NS (ISC-enriched organoids [2]; [7]): 0.745
SSMD.LYZ.NS (ISC-enriched organoids [2]; [8]): −0.407
Z.LYZ.S (ISC-enriched organoids [3]; [5]): 0.586
Z.LYZ.S (ISC-enriched organoids [3]; [6]): 0.112
Z.LYZ.S (ISC-enriched organoids [3]; [7]): 0.328
Z.LYZ.S (ISC-enriched organoids [3]; [8]): −0.138
SSMD.LYZ.S (ISC-enriched organoids [3]; [5]): 0.420
SSMD.LYZ.S (ISC-enriched organoids [3]; [6]): 0.134
SSMD.LYZ.S (ISC-enriched organoids [3]; [7]): 0.292
SSMD.LYZ.S (ISC-enriched organoids [3]; [8]): −0.142

BAM7
Dose.FC.CTG (ISC-enriched organoids [1]; dose 0.08 uM, ENR+CD 6 days): 0.209 log 2 fold change
Z.CTG (ISC-enriched organoids [1]; [9]): 0.498
Dose.FC.CTG (ISC-enriched organoids [1]; dose 0.40 uM, ENR+CD 6 days): −0.010 log 2 fold change
Z.CTG (ISC-enriched organoids [1]; [10]): −0.024
Dose.FC.CTG (ISC-enriched organoids [1]; dose 2.00 uM, ENR+CD 6 days): −0.156 log 2 fold change
Z.CTG (ISC-enriched organoids [1]; [11]): −0.373
Dose.FC.CTG (ISC-enriched organoids [1]; dose 10.00 uM, ENR+CD 6 days): −0.114 log 2 fold change
Z.CTG (ISC-enriched organoids [1]; [12]): −0.272
Dose.FC.LYZ.NS (ISC-enriched organoids [2]; dose 0.08 uM, ENR+CD 6 days): 0.045 log 2 fold change
Z.LYZ.NS (ISC-enriched organoids [2]; [9]): 0.391
Dose.FC.LYZ.NS (ISC-enriched organoids [2]; dose 0.40 uM, ENR+CD 6 days): −0.009 log 2 fold change
Z.LYZ.NS (ISC-enriched organoids [2]; [10]): −0.082
Dose.FC.LYZ.NS (ISC-enriched organoids [2]; dose 2.00 uM, ENR+CD 6 days): 0.057 log 2 fold change
Z.LYZ.NS (ISC-enriched organoids [2]; [11]): 0.498
Dose.FC.LYZ.NS (ISC-enriched organoids [2]; dose 10.00 uM, ENR+CD 6 days): −0.007 log 2 fold change
Z.LYZ.NS (ISC-enriched organoids [2]; [12]): −0.063
Dose.FC.LYZ.S (ISC-enriched organoids [3]; dose 0.08 uM, ENR+CD 6 days): 0.079 log 2 fold change
Dose.FC.LYZ.S (ISC-enriched organoids [3]; dose 0.40 uM, ENR+CD 6 days): 0.039 log 2 fold change
Dose.FC.LYZ.S (ISC-enriched organoids [3]; dose 2.00 uM, ENR+CD 6 days): 0.019 log 2 fold change
Dose.FC.LYZ.S (ISC-enriched organoids [3]; dose 10.00 uM, ENR+CD 6 days): −0.020 log 2 fold change

CCc1cc(Nc2nccc(-c3c(-c4ccc(OC)c(C(=O)Nc5c(F)cccc5F)c4)nc4ccccn34)n2)c(OC)cc1N1CCC(N2CCN(S(C)(=O)=O)CC2)CC1 [GSK1904529A]
Dose.FC.CTG (ISC-enriched organoids [1]; Dose 0.08 uM): 0.202 log 2 fold change
Z.CTG (ISC-enriched organoids [1]; Dose 0.08 uM, standard z score): 0.484
Dose.FC.CTG (ISC-enriched organoids [1]; Dose 0.40 uM): −0.071 log 2 fold change
Z.CTG (ISC-enriched organoids [1]; Dose 0.40 uM, standard z score): −0.170
Dose.FC.CTG (ISC-enriched organoids [1]; Dose 2.00 uM): −0.570 log 2 fold change
Z.CTG (ISC-enriched organoids [1]; Dose 2.00 uM, standard z score): −1.361
Dose.FC.CTG (ISC-enriched organoids [1]; Dose 10.00 uM): −0.691 log 2 fold change
Z.CTG (ISC-enriched organoids [1]; [4]): −1.649
Dose.FC.LYZ.NS (ISC-enriched organoids [2]; Dose 0.08 uM): 0.102 log 2 fold change
Z.LYZ.NS (ISC-enriched organoids [2]; Dose 0.08 uM, standard z score): 0.890
Dose.FC.LYZ.NS (ISC-enriched organoids [2]; Dose 0.40 uM): 0.112 log 2 fold change
Z.LYZ.NS (ISC-enriched organoids [2]; Dose 0.40 uM, standard z score): 0.977
Dose.FC.LYZ.NS (ISC-enriched organoids [2]; Dose 2.00 uM): −0.179 log 2 fold change
Z.LYZ.NS (ISC-enriched organoids [2]; Dose 2.00 uM, standard z score): −1.557
Dose.FC.LYZ.NS (ISC-enriched organoids [2]; Dose 10.00 uM): −0.163 log 2 fold change
Z.LYZ.NS (ISC-enriched organoids [2]; [4]): −1.419
Dose.FC.LYZ.S (ISC-enriched organoids [3]; Dose 0.08 uM): 0.133 log 2 fold change
Dose.FC.LYZ.S (ISC-enriched organoids [3]; Dose 0.40 uM): −0.047 log 2 fold change
Dose.FC.LYZ.S (ISC-enriched organoids [3]; Dose 2.00 uM): −0.225 log 2 fold change
Dose.FC.LYZ.S (ISC-enriched organoids [3]; Dose 10.00 uM): −0.276 log 2 fold change

— patent publication US20230398130A1, “METHODS AND COMPOSITIONS FOR DIFFERENTIATING STEM CELLS” (Massachusetts Institute of Technology, priority 2020, published 2023)
